Experimental data published in the NIST ThermoML archive (doi:10.1021/je700190m).
Numbers after ± are expanded uncertainties.

Assay: wn = mass fraction of the nth substance listed
Conditions: 310 K; 101.3 kPa; Liquid; Concentric cylinders viscometry; w1 = 0.1

Row | Structure (SMILES) | viscosity
1 | O=C[C@H](O)[C@@H](O)[C@H](O[C@@H]1O[C@H](CO)[C@H](O)[C@H](O)[C@H]1O)[C@H](O)CO [4-O-β-D-galactopyranosyl-D-glucose] + O | 1.16 ± 0.23 mPa·s
2 | O=C[C@H](O)[C@@H](O)[C@H](O)[C@H](O)CO [D-glucose] + O | 1 ± 0.2 mPa·s
3 | O.O.O.O.O.OC[C@H]1O[C@H](OC[C@H]2O[C@H](O[C@]3(CO)O[C@H](CO)[C@@H](O)[C@@H]3O)[C@H](O)[C@@H](O)[C@@H]2O)[C@H](O)[C@@H](O)[C@H]1O [D-raffinose, pentahydrate] + O | 1.22 ± 0.25 mPa·s
4 | OC[C@@H](O)[C@@H](O)[C@H](O)[C@@H](O)CO [D-sorbitol] + O | 1.02 ± 0.21 mPa·s
5 | O=C(CO)[C@@H](O)[C@H](O)[C@@H](CO)O[C@H]1O[C@H](CO)[C@@H](O)[C@H](O)[C@H]1O [leucrose] + O | 1.05 ± 0.21 mPa·s

Other lines, results leading:

Row | viscosity | Structure (SMILES)
6 | 1.08 ± 0.22 mPa·s | OC[C@@H](O)[C@@H](O[C@H]1O[C@H](CO)[C@@H](O)[C@H](O)[C@H]1O)[C@H](O)[C@@H](O)CO [4-O-α-D-glucopyranosyl-D-glucitol] + O
7 | 1.1 ± 0.22 mPa·s | O.O.OC[C@H]1O[C@H](O[C@H]2O[C@H](CO)[C@@H](O)[C@H](O)[C@H]2O)[C@H](O)[C@@H](O)[C@@H]1O [D-(+)-trehalose dihydrate] + O
8 | 1.06 ± 0.21 mPa·s | OC[C@H]1O[C@@](CO)(O[C@H]2O[C@H](CO)[C@@H](O)[C@H](O)[C@H]2O)[C@@H](O)[C@@H]1O [D-sucrose] + O
9 | 1.03 ± 0.21 mPa·s | OC[C@@H](O)[C@@H](O)[C@H](O)[C@H](O)CO [mannitol] + O
10 | 1.03 ± 0.21 mPa·s | OC[C@@H](O)[C@H](O)[C@@H](O)CO [xylitol] + O
